{"source": "paper PMC7537338", "about": "“CD47/SIRPα blocking peptide identification and synergistic effect with irradiation for cancer immunotherapy” (Journal for Immunotherapy of Cancer, 2020)", "key": {"[1]": {"target": "T1, human CD47/SIRPα interaction (Homo sapiens, UniProt Q08722)", "T1 construct": "Human or mouse CD47-IgV-Domain-hIg fusion proteins (20 nM, Sino Biological, China); purchased Sino Biological (hIg fusion); ACROBiosystems (biotinylated human CD47); host or cells: SIRPα partner: CHO cells stably expressing human SIRPα", "T1 sequence (Q08722 19-127 limits assumed)": "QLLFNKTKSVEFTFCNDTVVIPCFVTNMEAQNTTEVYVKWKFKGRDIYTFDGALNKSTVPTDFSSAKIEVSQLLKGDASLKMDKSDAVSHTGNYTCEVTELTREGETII", "experiment": "Blocking assay, human CD47 protein binding to CHO cells expressing human SIRPα (flow cytometry)", "details": "blockade of peptides to hCD47 relative to parent pep-20, Table S4", "method": "Human or mouse CD47-IgV-Domain-hIg fusion proteins (20 nM, Sino Biological, China), or biotinylated human CD47 protein (20 nM, ACROBiosystems, USA) was incubated with titrating concentrations of peptides or anti-human CD47 antibody (B6H12) in phosphate-buffered saline (PBS, pH 7.4) for 1 hour at 4°C. The mixture was incubated with human or mice SIRPα overexpressed Chinese hamster ovary cells for 30 min at 4°C, washed to remove unbound mixtures and phycoerythrin (PE)-conjugated goat anti-human IgG or PE-conjugated streptavidin was incubated (eBioscience, USA). Cells were then analyzed by flow cytometry (BD Biosciences, USA). The IC50 was determined from sigmoidal dose response curves illustrated by GraphPad Prism."}, "[2]": {"experiment": "Pharmacokinetic assay in vivo", "details": "C57BL/6, mouse, plasma, iv, 40 mg/kg", "experimental": "(§1) of pep-20 and pep- 20-D12. The plasma concentration-time curve of pep-20 (E) and\n(§2) C57BL/6 mice with weight of 18-20 g were administrated with a single 141\n(§3) centrifuged at 8000 rpm for 10 min at the indicated intervals. Plasma wa s 143\n(§4) further mixed with 10% HClO4 at a ratio of 2∶1 (v/v) and centrifuged at 16,000 144"}, "[3]": {"experiment": "Peptide stability assay in 10% human serum", "format": "in vitro ADME", "details": "200 μM peptide in normal saline, fresh human serum 10% vol/vol, 37°C, sampled 0 min to 48 h, RP-HPLC, triplicates", "method": "proteolysis compared with parent pep-20. (A, B) Dose response curves of pep-20-D12 interfering CD47-Sirpα interaction. […]\npeptide and serum were analyzed by RP-HPLC. Error bars indicate standard deviation of triplicates. Data are represented as means ± SEM. (E, F) The pharmacokinetic analysis […]\nof pep-20 and pep- 20-D12.\nData are represented as means ± SEM. […]\nhuman serum (10%, vol/vol).\n8h, 24h, 36h and 48h. The acetonitrile-glacial acetic acid mixture was utilized 136 to terminate the enzymatic reaction. After centrifuged at 12000 rpm for 10 min, 137 […]\nPharmacokinetic assays in vivo 140 […]\nintravenous dose of 40 mg/kg of peptides. Blood samples were collected an d 142 […]\nrpm for 10 min. The supernatant was analyzed by RP-HPLC. The 145 pharmacokinetic parameters of peptides were determined by 146 noncompartmental analysis (NCA) using Phoenix WinNonlin software program 147 5.2.1 (Certara, Princeton, USA). The maximum plasma concentration Cmax and 148 elimination half-life (T1/2) were calculated. 149"}, "in vivo": {"experiment": "in vivo", "details": "C57BL/6, mouse, iv, 40 mg/kg", "experimental": "as §1, §2, §3, §4"}, "[4]": {"test_system": "MC38 tumor-bearing C57BL/6 mice", "experiment": "Hematological toxicity in MC38 tumor-bearing mice", "format": "in vivo", "details": "2 mg/kg i.p. every day two weeks versus miap301 400 μg every 3 days x5, day 14, n = 4 - 5", "method": "anti-CD47. (A, B) MC38 tumor-bearing C57BL/6 mice were treated i.p. with 2 mg/kg pep-20-D12 every day for two weeks or 400μg anti -mouse CD47 antibody\n(miap301) every 3 days for a total of 5 times, and normal saline or ratIg as the negative controls, respectively (n = 4 - 5). On day 14, hematologic parameters of red blood cell (A), hemoglobin (B) level were analyzed. Data are represented as means ± SEM. Statistical significance was determined by unpaired Student's t test.\n111 Mouse toxicity assays\n112 Normal C57BL/6 mice were injected s.c. with 2 mg/kg peptides or normal 113 saline as the negative control daily from day 1 to 14 (n = 5). On days 0 and 14, 114 mice blood samples were collected via retro-orbital bleed. For MC38 115 tumor-bearing mice, blood samples were collected after treatment (n = 4 - 5).\n116 Hematologic and blood biochemical parameters were analyzed by ADVIA 117 2120i Hematology Analyzer (Siemens, Germany). […]\n124 The 3D structure of pep-20 was predicted by pep-FOLD3. […] The ΔdAffinity 126 between pep-20 and pep-20-derived alanine substituation analogue peptides 127 were calculated by Ala-scanning of molecular operating environment (MOE, 128 Chemical Computing Group, CA), which was used to display the structure of 129 pep-20 and docking model of pep-20 and CD47 including interaction of […]"}}, "note": "Where a SMILES comes first, the peptide text is derived from it. [ ]: non-standard residue; d: D form."}
{"compound": "C[C@H](NC(=O)[C@@H](CO)NC(=O)[C@@H](Cc1c[nH]c2ccccc12)NC(=O)[C@@H](C)N)C(=O)N[C@H](C(=O)N[C@@H](Cc1c[nH]c2ccccc12)C(=O)N[C@@H](CO)C(=O)N[C@@H](CC(N)=O)C(=O)N[C@@H](Cc1ccc(O)cc1)C(=O)N[C@H](Cc1c[nH]c2ccccc12)C(=O)N[C@H](CCCNC(=N)N)C(=O)N[C@H](Cc1c[nH]cn1)C(=O)O)[C@@H](C)O", "note": "[pep-20-D12] (H-[dA][dW][dS]ATWSNY[dW][dR][dH]-OH)", "values": [{"measurement": "Blocking rate relative to pep-20 (%)", "setting": "[1]", "value": 105, "unit": "%"}, {"measurement": "Cmax", "setting": "[2]", "value": 54.5, "unit": "µg/mL"}, {"measurement": "Time for which the initial concentration was retained in human serum", "setting": "[3]", "value": "up to 36 hours"}, {"measurement": "half-life", "setting": "in vivo", "value": 6.36, "unit": "h"}, {"measurement": "Blood toxicity (red blood cell, hemoglobin) compared with anti-CD47 antibody", "setting": "[4]", "value": "less blood toxicity"}]}
